Source: article PMC7469376 (ACS Omega, 2020)

Columns and labels:
A549 cells = assay: MTT cell viability assay, A549; type: cell-based; conditions: Homo sapiens, A549, 48 h, read-out: IC50, cell viability (MTT)
[1] = tested on: caspase-3 activity in A549 cells; assay: Caspase-3 colorimetric assay, A549; type: cell-based, human; conditions: 50 and 100 μM, 24 h, compared to untreated cells
SphK1 [2] = target: T1, SphK1 (Homo sapiens, UniProt Q9NYA1); assay: Malachite green-based ATPase enzyme inhibition assay; type: biochemical
[3] = tested on: caspase-3 activity in H1299 cells; assay: Caspase-3 colorimetric assay, H1299; type: cell-based, human; conditions: 50 and 100 μM, 24 h, compared to untreated cells
HEK293 = conditions: read-out: IC50 against HEK293; after 72 h of treatment; ref Storch et al. 94; cited from earlier work
SphK1 [4] = target: T1, SphK1; assay: Isothermal titration calorimetry of harmaline with SphK1; type: binding
H1299 cells = assay: MTT cell viability assay, H1299; type: cell-based; conditions: Homo sapiens, NCI-H1299, 48 h, read-out: IC50, cell viability (MTT)

T1 sequence (Q9NYA1 whole entry): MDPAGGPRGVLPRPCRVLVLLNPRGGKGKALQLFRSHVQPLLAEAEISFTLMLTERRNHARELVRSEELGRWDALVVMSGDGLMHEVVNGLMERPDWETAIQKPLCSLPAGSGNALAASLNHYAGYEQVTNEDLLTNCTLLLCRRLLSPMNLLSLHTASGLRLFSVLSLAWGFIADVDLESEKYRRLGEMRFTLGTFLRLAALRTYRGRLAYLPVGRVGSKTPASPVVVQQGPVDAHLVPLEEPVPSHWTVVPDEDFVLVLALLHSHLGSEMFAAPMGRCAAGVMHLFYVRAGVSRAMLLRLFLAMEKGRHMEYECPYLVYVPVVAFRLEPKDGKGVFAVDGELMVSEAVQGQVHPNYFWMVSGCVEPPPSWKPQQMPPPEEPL

Structure (SMILES): COc1ccc2c3c([nH]c2c1)C(C)=NCC3 [harmaline]
- IC50 (A549 cells): 67.9 ± 2.91 µM
- caspase-3 activity (free pNA liberated per hour) [1]: gradual increase in the caspase-3 activity
- IC50 (SphK1 [2]; IC50, SphK1 ATPase activity, harmaline 0 to 30 μM, three independent experiments): 6.13 µM
- hill slope of SphK1 inhibition curve (SphK1 [2]; three-parameter Hill fit): 0.57
- caspase-3 activity (free pNA liberated per hour) [3]: gradual increase in the caspase-3 activity
- IC50 (HEK293): > 200 µM
- association constant Ka1 (SphK1 [4]; ITC, site 1): Ka1 = 1.89 × 10^4 ± 1.3 × 10^3 M^–1
- enthalpy change ΔH1 (SphK1 [4]; ITC, site 1): ΔH1 = −3205 ± 197 cal/mol
- ΔG1 (free energy change) (SphK1 [4]; ITC, site 1): ΔG1 = −5.83 kcal/mol
- ΔS1 (SphK1 [4]; ITC, site 1): ΔS1 = 8.82 cal/mol/deg
- association constant Ka2 (SphK1 [4]; ITC, site 2): Ka2 = 1.49 × 10^5 ± 8.6 × 10^3 M^–1
- enthalpy change ΔH2 (SphK1 [4]; ITC, site 2): ΔH2 = 1895 ± 257 cal/mol
- ΔG2 (free energy change) (SphK1 [4]; ITC, site 2): ΔG2 = −7.04 kcal/mol
- ΔS2 (SphK1 [4]; ITC, site 2): ΔS2 = 30.0 cal/mol/deg
- association constant Ka3 (SphK1 [4]; ITC, site 3): Ka3 = 3.50 × 10^4 ± 2.0 × 10^3 M^–1
- enthalpy change ΔH3 (SphK1 [4]; ITC, site 3): ΔH3 = 272.3 ± 190 cal/mol
- ΔG3 (free energy change) (SphK1 [4]; ITC, site 3): ΔG3 = −5.99 kcal/mol
- ΔS3 (SphK1 [4]; ITC, site 3): ΔS3 = 21.7 cal/mol/deg
- association constant Ka4 (SphK1 [4]; ITC, site 4): Ka4 = 4.58 × 10^3 ± 2.9 × 10^2 M^–1
- enthalpy change ΔH4 (SphK1 [4]; ITC, site 4): ΔH4 = −9574 ± 467 cal/mol
- ΔG4 (free energy change) (SphK1 [4]; ITC, site 4): ΔG4 = −4.98 kcal/mol
- ΔS4 (SphK1 [4]; ITC, site 4): ΔS4 = −15.4 cal/mol/deg
- Kd (SphK1 [4]; dissociation constant KD1, ITC, site 1): 52.9 µM
- Kd (SphK1 [4]; dissociation constant KD2, ITC, site 2): 6.7 µM
- Kd (SphK1 [4]; dissociation constant KD3, ITC, site 3): 28.6 µM
- Kd (SphK1 [4]; dissociation constant KD4, ITC, site 4): 218 µM
- IC50 (H1299 cells): 48.2 ± 1.76 µM
